Laboratory results from US20240383954A1, “PEPTIDE INHIBITORS OF INTERLEUKIN-23 RECEPTOR AND THEIR USE TO TREAT INFLAMMATORY DISEASES” (Janssen Biotech, Inc., priority 2020, published 2024).
pIC50: −log10 of the molar value. Where two headings read alike, the source gives them in different places. Starred links: 1 amine or outer side, 2 acyl side, 3 side chain; linkers in the order of their positions; H or OH if unused. Positions of bridges follow the written chain, without caps; N, C: chain ends. Non-standard residues stand in square brackets, D forms with d. Residues, ends and D or L forms follow the SMILES beside them. Trp(7-Ph) = N[C@@H](Cc1c[nH]c2c(-c3ccccc3)cccc12)C(=O)O; Trp(7-Me) = Cc1cccc2c(C[C@H](N)C(=O)O)c[nH]c12; Abu(4-yl) = O=C([C@H](CC[*:3])N[*:1])[*:2]; 2Nal = N[C@@H](Cc1ccc2ccccc2c1)C(=O)O; AEF = NCCOc1ccc(C[C@H](N)C(=O)O)cc1; αMeF = C[C@](N)(Cc1ccccc1)C(=O)O; Cit = NC(=O)NCCC[C@H](N)C(=O)O; Pen = CC(C)(S)[C@H](N)C(=O)O; αMeK = C[C@](N)(CCCCN)C(=O)O; Aib = CC(C)(N)C(=O)O

Legend:
Test in all cases: cell-based
[1] = target: T1, IL-23R (Homo sapiens, UniProt Q5VWK5)
Excerpt: DB Cells IL23R pSTAT3 Cell Assay
Changes in phospho-STAT3 levels in the cell lysates were detected using the Cisbio HTRF pSTAT3 Cellular Assay Kit, according to manufacturer's Two Plate Assay protocol.

[2] = target: T1, IL-23R; details: PBMC pSTAT3 IC50 (nM), PBMCs from healthy donors, IL-23 5 ng/mL, 30 minutes, phosphorylated STAT3
[3] = target: T1, IL-23R; remark: listed apart in the source
Description: After 7 days, cells were centrifuged, and resuspended in complete media at IE6 cells/mL. […] After 20 to 24 hours, IFNγ in the supernatant was quantified using Quantikine ELISA (RnD, Cat #DIF50).

T1 sequence (Q5VWK5 24-629): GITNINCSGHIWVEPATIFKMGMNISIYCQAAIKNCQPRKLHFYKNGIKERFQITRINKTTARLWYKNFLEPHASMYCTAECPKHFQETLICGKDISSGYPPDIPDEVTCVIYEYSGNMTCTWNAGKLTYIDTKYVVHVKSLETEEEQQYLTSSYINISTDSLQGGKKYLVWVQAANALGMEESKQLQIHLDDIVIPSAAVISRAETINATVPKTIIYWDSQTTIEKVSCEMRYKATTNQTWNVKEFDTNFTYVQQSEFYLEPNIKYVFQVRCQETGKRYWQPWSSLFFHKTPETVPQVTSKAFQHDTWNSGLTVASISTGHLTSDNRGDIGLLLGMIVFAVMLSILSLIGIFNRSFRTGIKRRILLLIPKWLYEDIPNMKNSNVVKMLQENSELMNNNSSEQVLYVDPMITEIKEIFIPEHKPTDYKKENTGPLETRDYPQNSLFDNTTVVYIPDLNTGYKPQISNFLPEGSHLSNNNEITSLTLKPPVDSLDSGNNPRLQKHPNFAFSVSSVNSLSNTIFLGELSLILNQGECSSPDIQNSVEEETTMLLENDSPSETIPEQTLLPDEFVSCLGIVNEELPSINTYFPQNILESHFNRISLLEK

SMILES | pIC50 [1] | IC50 [2] [nM] | pIC50 [3]
CC(=O)NCCCC[C@@H]1NC(=O)[C@H](Cc2c[nH]c3c(C)cccc23)NC(=O)[C@H]([C@@H](C)O)NC(=O)[C@H](CC(N)=O)NC(=O)[C@@H](NC(C)=O)C(C)(C)SSC(C)(C)[C@@H](C(=O)N[C@@H](Cc2ccc(OCCN)cc2)C(=O)N[C@@H](Cc2ccc3ccccc3c2)C(=O)N[C@@](C)(CCCCN)C(=O)N[C@@H](CCCCNC(C)=O)C(=O)N[C@@H](CC(N)=O)C(=O)N[C@@H](Cc2ccc(N)cc2)C(N)=O)NC1=O [Compound 112, Ac-[Pen]-N-T-[W(7-Me)]-[Lys(Ac)]-[Pen]-Phe[4-(2-aminoethoxy)]-[2-Nal]-[a-MeLys]-[Lys(Ac)]-N-Phe[4-NH2]-NH2] | 8.68 |  | 
CC(=O)NCCCC[C@@H]1NC(=O)[C@H](Cc2c[nH]c3c(C)cccc23)NC(=O)[C@H]([C@@H](C)O)NC(=O)[C@H](CC(N)=O)NC(=O)[C@@H](NC(C)=O)C(C)(C)SSC(C)(C)[C@@H](C(=O)N[C@@H](Cc2ccc(OCCN)cc2)C(=O)N[C@@H](Cc2ccc3ccccc3c2)C(=O)N[C@@](C)(CCCCN)C(=O)N[C@@H](CCCCNC(C)=O)C(=O)N[C@@H](CC(N)=O)C(=O)NC(C)(C)C(=O)NCCCCCC(N)=O)NC1=O [Compound 70, Ac-[Pen]-N-T-[W(7-Me)]-[Lys(Ac)]-[Pen]-Phe[4-(2-aminoethoxy)]-[2-Nal]-[a-MeLys]-[Lys(Ac)]-N-[Aib-Ahx]-NH2] | 8.91 |  | 
CCC(=O)N[C@H](CCCNC(=N)N)C(=O)N[C@@H]1C(=O)N[C@@H](CCC(N)=O)C(=O)N[C@@H]([C@@H](C)O)C(=O)N[C@@H](Cc2c[nH]c3ccccc23)C(=O)N[C@@H](CCC(N)=O)C(=O)N[C@H](C(=O)N[C@@H](Cc2ccc(OCCN)cc2)C(=O)N[C@@H](Cc2ccc3ccccc3c2)C(=O)NC2(C(=O)N[C@@H](CCCCNC(=O)C(F)(F)F)C(=O)N[C@@H](CC(N)=O)C(=O)NC3(C(N)=O)CCOCC3)CCOCC2)C(C)(C)SSC1(C)C [Compound 6, [Propionic_acid]-[(D)Arg]-[Pen]-Q-T-W-Q-[Pen]-Phe[4-(2-aminoethoxy)]-[2-Nal]-[THP]-[Lys(COCF3)]-N-[THP]-NH2] |  | 8.6 | 7.77
CC(=O)NCCCC[C@@H]1NC(=O)[C@H](Cc2c[nH]c3c(C)cccc23)NC(=O)[C@H]([C@@H](C)O)NC(=O)[C@H](CC(N)=O)NC(=O)[C@@H](NC(C)=O)C(C)(C)SSC(C)(C)[C@@H](C(=O)N[C@@H](Cc2ccc(OCCN)cc2)C(=O)N[C@@H](Cc2ccc3ccccc3c2)C(=O)N[C@@](C)(CCCCN)C(=O)N[C@@H](CCCCNC(C)=O)C(=O)N[C@@H](CC(N)=O)C(=O)N[C@H](CC(C)C)C(=O)N[C@@](C)(Cc2ccccc2)C(N)=O)NC1=O [Compound 68, Ac-[Pen]-N-T-[W(7-Me)]-[Lys(Ac)]-[Pen]-Phe[4-(2-aminoethoxy)]-[2-Nal]-[a-MeLys]-[Lys(Ac)]-N-[(D)Leu]-[aMePhe]-am] | 8.15 |  | 
CC(=O)NCCCC[C@H](NC(=O)[C@](C)(CCCCN)NC(=O)[C@H](Cc1ccc2ccccc2c1)NC(=O)[C@H](Cc1ccc(OCCN)cc1)NC(=O)[C@H]1NC(=O)[C@H](CCCNC(N)=O)NC(=O)[C@H](Cc2c[nH]c3c(C)cccc23)NC(=O)[C@H]([C@@H](C)O)NC(=O)[C@H](CC(N)=O)NC(=O)[C@@H](NC(C)=O)C(C)(C)SSC1(C)C)C(=O)N[C@@H](CC(N)=O)C(=O)NC(C)(C)C(=O)N[C@H](Cc1ccc(O)cc1)C(N)=O [Compound 202, Ac-[Pen]-N-T-[W(7-Me)]-[Cit]-[Pen]-Phe[4-(2-aminoethoxy)]-[2-Nal]-[a-MeLys]-[Lys(Ac)]-N-[Aib]-[(D)Tyr]-NH2] (Ac-[Pen]NT[Trp(7-Me)][Cit][Pen][AEF][2Nal][αMeK]K(Ac)N[Aib][dY]-NH2; disulfide 1-6) | 9.20 |  | 
CC(=O)NCCCC[C@@H]1NC(=O)[C@H](Cc2c[nH]c3c(-c4ccccc4)cccc23)NC(=O)[C@H]([C@@H](C)O)NC(=O)[C@H](CCC(N)=O)NC(=O)[C@@H](NC(C)=O)CCSC[C@@H](C(=O)N[C@@H](Cc2ccc(OCCN)cc2)C(=O)N[C@@H](Cc2ccc3ccccc3c2)C(=O)N[C@@](C)(CCCCN)C(=O)N[C@@H](CCCCNC(C)=O)C(=O)N[C@@H](CC(N)=O)C(=O)N[C@@](C)(Cc2ccccc2)C(N)=O)NC1=O [Compound 67, Ac-[Abu]-Q-T-[W(7-Ph)]-[Lys(Ac)]-[Cys]-Phe[4-(2-aminoethoxy)]-[2-Nal]-[a-MeLys]-[Lys(Ac)]-N-[a-MePhe]-NH2] (Ac-[Abu(4-yl)]QT[Trp(7-Ph)]K(Ac)C[AEF][2Nal][αMeK]K(Ac)N[αMeF]-NH2; thioether 1-6) | 8.26 |  | 
CC(=O)NCCCC[C@@H]1NC(=O)[C@H](Cc2c[nH]c3c(C)cccc23)NC(=O)[C@H]([C@@H](C)O)NC(=O)[C@H](CCC(N)=O)NC(=O)[C@@H](NC(=O)[C@@H](CCCNC(=N)N)NC(C)=O)CCSC[C@@H](C(=O)N[C@@H](Cc2ccc(OCCN)cc2)C(=O)N[C@@H](Cc2ccc3ccccc3c2)C(=O)N[C@@](C)(CCCCN)C(=O)N[C@@H](CCCCNC(C)=O)C(=O)N[C@@H](CC(N)=O)C(=O)N[C@@](C)(Cc2ccccc2)C(N)=O)NC1=O [Compound 201, Ac-[(D)Arg]-[Abu]-Q-T-[W(7-Me)]-[Lys(Ac)]-[Cys]-Phe[4-(2-aminoethoxy)]-[2-Nal]-[a-MeLys]-[Lys(Ac)]-N-[a-MePhe]-NH2] (Ac-[dR][Abu(4-yl)]QT[Trp(7-Me)]K(Ac)C[AEF][2Nal][αMeK]K(Ac)N[αMeF]-NH2; thioether 2-7) | 7.90 |  | 
CC(=O)NCCCC[C@@H]1NC(=O)[C@H](Cc2c[nH]c3c(C)cccc23)NC(=O)[C@H]([C@@H](C)O)NC(=O)[C@H](CC(N)=O)NC(=O)[C@@H](NC(C)=O)C(C)(C)SSC(C)(C)[C@@H](C(=O)N[C@@H](Cc2ccc(OCCN)cc2)C(=O)N[C@@H](Cc2ccc3ccccc3c2)C(=O)N[C@@](C)(CCCCN)C(=O)N[C@@H](CCCCNC(C)=O)C(=O)N[C@@H](CC(N)=O)C(=O)NC(C)(C)C(=O)N[C@H](CC(N)=O)Cc2ccccc2)NC1=O [Compound 71, Ac-[Pen]-N-T-[W(7-Me)]-[Lys(Ac)]-[Pen]-Phe[4-(2-aminoethoxy)]-[2-Nal]-[a-MeLys]-[Lys(Ac)]-N-[Aib]-[bhPhe]-NH2] | 8.47 |  | 
CC(=O)NCCCC[C@@H]1NC(=O)[C@H](Cc2c[nH]c3c(C)cccc23)NC(=O)[C@@H](CCCCN)NC(=O)[C@H](CC(N)=O)NC(=O)[C@@H](NC(C)=O)C(C)(C)SSC(C)(C)[C@@H](C(=O)N[C@@H](Cc2ccc(OCCN)cc2)C(=O)N[C@@H](Cc2ccc3ccccc3c2)C(=O)N[C@@](C)(CCCCN)C(=O)N[C@@H](CCCCNC(C)=O)C(=O)N[C@@H](CC(N)=O)C(=O)N[C@H](CC(C)C)C(N)=O)NC1=O [Compound 73, Ac-[Pen]-N-[(D)Lys]-[W(7-Me)]-[Lys(Ac)]-[Pen]-Phe[4-(2-aminoethoxy)]-[2-Nal]-[a-MeLys]-[Lys(Ac)]-N-[(D)Leu]-NH2] (Ac-[Pen]N[dK][Trp(7-Me)]K(Ac)[Pen][AEF][2Nal][αMeK]K(Ac)N[dL]-NH2; disulfide 1-6) | 7.29 |  | 
CC(=O)NCCCC[C@@H]1NC(=O)[C@H](Cc2c[nH]c3c(C)cccc23)NC(=O)[C@@H](CC(=O)O)NC(=O)[C@H](CC(N)=O)NC(=O)[C@@H](NC(C)=O)C(C)(C)SSC(C)(C)[C@@H](C(=O)N[C@@H](Cc2ccc(OCCN)cc2)C(=O)N[C@@H](Cc2ccc3ccccc3c2)C(=O)N[C@@](C)(CCCCN)C(=O)N[C@@H](CCCCNC(C)=O)C(=O)N[C@@H](CC(N)=O)C(=O)N[C@H](CC(C)C)C(N)=O)NC1=O [Compound 74, Ac-[Pen]-N-[(D)Asp]-[W(7-Me)]-[Lys(Ac)]-[Pen]-Phe[4-(2-aminoethoxy)]-[2-Nal]-[a-MeLys]-[Lys(Ac)]-N-[(D)Leu]-NH2] (Ac-[Pen]N[dD][Trp(7-Me)]K(Ac)[Pen][AEF][2Nal][αMeK]K(Ac)N[dL]-NH2; disulfide 1-6) | 7.14 |  | 
